Experimental data published in BigSolDB 2.1.

Nc1ccc(Cl)nn1
solubility (mole fraction) (in DMF, 298.45 K): 0.0353
solubility (mole fraction) (in DMF, 303.35 K): 0.0401
solubility (mole fraction) (in DMF, 308.15 K): 0.0455
solubility (mole fraction) (in DMF, 313.35 K): 0.0522
solubility (mole fraction) (in DMF, 318.15 K): 0.0592
solubility (mole fraction) (in DMF, 323.25 K): 0.0647
solubility (mole fraction) (in DMF, 328.35 K): 0.0705
solubility (mole fraction) (in DMF, 333.45 K): 0.0768
solubility (mole fraction) (in DMF, 337.95 K): 0.083
solubility (mole fraction) (in DMF, 343.05 K): 0.0904
solubility (mole fraction) (in acetone, 298.15 K): 0.00338
solubility (mole fraction) (in acetone, 303.15 K): 0.00423
solubility (mole fraction) (in acetone, 308.15 K): 0.00513
solubility (mole fraction) (in acetone, 313.25 K): 0.00597
solubility (mole fraction) (in acetone, 318.15 K): 0.00682
solubility (mole fraction) (in acetone, 323.15 K): 0.00791
solubility (mole fraction) (in acetone, 328.15 K): 0.00871
solubility (mole fraction) (in cyclohexanone, 298.25 K): 0.00455
solubility (mole fraction) (in cyclohexanone, 303.25 K): 0.0053
solubility (mole fraction) (in cyclohexanone, 308.15 K): 0.00643
solubility (mole fraction) (in cyclohexanone, 313.15 K): 0.00782
solubility (mole fraction) (in cyclohexanone, 318.25 K): 0.00889
solubility (mole fraction) (in cyclohexanone, 323.05 K): 0.0107
solubility (mole fraction) (in cyclohexanone, 328.15 K): 0.0125
solubility (mole fraction) (in cyclohexanone, 333.15 K): 0.015
solubility (mole fraction) (in cyclohexanone, 338.25 K): 0.0174
solubility (mole fraction) (in cyclohexanone, 343.15 K): 0.02
solubility (mole fraction) (in ethanol, 298.15 K): 0.00206
solubility (mole fraction) (in ethanol, 303.25 K): 0.00271
solubility (mole fraction) (in ethanol, 308.15 K): 0.00318
solubility (mole fraction) (in ethanol, 313.15 K): 0.00405
solubility (mole fraction) (in ethanol, 318.15 K): 0.005
solubility (mole fraction) (in ethanol, 323.15 K): 0.006
solubility (mole fraction) (in ethanol, 328.15 K): 0.00702
solubility (mole fraction) (in ethanol, 333.15 K): 0.00848
solubility (mole fraction) (in ethanol, 338.15 K): 0.00994
solubility (mole fraction) (in ethanol, 342.85 K): 0.0113
solubility (mole fraction) (in ethyl acetate, 298.45 K): 0.00133
solubility (mole fraction) (in ethyl acetate, 303.35 K): 0.00166
solubility (mole fraction) (in ethyl acetate, 308.15 K): 0.00194
solubility (mole fraction) (in ethyl acetate, 313.15 K): 0.00227
solubility (mole fraction) (in ethyl acetate, 318.25 K): 0.00263
solubility (mole fraction) (in ethyl acetate, 323.25 K): 0.00319
solubility (mole fraction) (in ethyl acetate, 328.15 K): 0.00358
solubility (mole fraction) (in ethyl acetate, 333.15 K): 0.00413
solubility (mole fraction) (in ethyl acetate, 338.35 K): 0.00479
solubility (mole fraction) (in ethyl acetate, 343.15 K): 0.0053
solubility (mole fraction) (in methanol, 298.15 K): 0.00388
solubility (mole fraction) (in methanol, 303.35 K): 0.00444
solubility (mole fraction) (in methanol, 308.05 K): 0.00525
solubility (mole fraction) (in methanol, 313.15 K): 0.00605
solubility (mole fraction) (in methanol, 318.15 K): 0.00721
solubility (mole fraction) (in methanol, 322.95 K): 0.00824
solubility (mole fraction) (in methanol, 328.55 K): 0.00936
solubility (mole fraction) (in methanol, 332.45 K): 0.0107
solubility (mole fraction) (in n-butanol, 296.55 K): 0.00171
solubility (mole fraction) (in n-butanol, 302.95 K): 0.00224
solubility (mole fraction) (in n-butanol, 309.85 K): 0.00315
solubility (mole fraction) (in n-butanol, 313.05 K): 0.00357
solubility (mole fraction) (in n-butanol, 318.25 K): 0.00428
solubility (mole fraction) (in n-butanol, 322.95 K): 0.00498
solubility (mole fraction) (in n-butanol, 328.15 K): 0.00629
solubility (mole fraction) (in n-butanol, 333.45 K): 0.00741
solubility (mole fraction) (in n-butanol, 338.35 K): 0.00871
solubility (mole fraction) (in n-butanol, 343.15 K): 0.0102
solubility (mole fraction) (in toluene, 298.15 K): 5.02e-05
solubility (mole fraction) (in toluene, 303.25 K): 6.73e-05
solubility (mole fraction) (in toluene, 308.15 K): 8.17e-05
solubility (mole fraction) (in toluene, 313.35 K): 0.000116
solubility (mole fraction) (in toluene, 318.15 K): 0.000155
solubility (mole fraction) (in toluene, 323.25 K): 0.000202
solubility (mole fraction) (in toluene, 328.35 K): 0.00025
solubility (mole fraction) (in toluene, 333.15 K): 0.000293
solubility (mole fraction) (in toluene, 338.35 K): 0.000352
solubility (mole fraction) (in toluene, 343.55 K): 0.000454
